# Assay results from publication PMC12209146 (Cellular and Molecular Life Sciences: CMLS, 2025).
# Like-named read-outs stand apart in the source and are kept apart here. No end group written: not given here.
# How the values were obtained:
# zebrafish embryos = conditions: in vivo; cited from earlier work
# TcdB [1] = molecular target: T1, TcdB (Clostridioides difficile, UniProt P18177); conditions: 100 µM peptide, 200 pM TcdB, added simultaneously, FCS-free medium, 7 h, 37 °C; n = 9
# Target sequence in this assay (P18177 2-2366 limits assumed): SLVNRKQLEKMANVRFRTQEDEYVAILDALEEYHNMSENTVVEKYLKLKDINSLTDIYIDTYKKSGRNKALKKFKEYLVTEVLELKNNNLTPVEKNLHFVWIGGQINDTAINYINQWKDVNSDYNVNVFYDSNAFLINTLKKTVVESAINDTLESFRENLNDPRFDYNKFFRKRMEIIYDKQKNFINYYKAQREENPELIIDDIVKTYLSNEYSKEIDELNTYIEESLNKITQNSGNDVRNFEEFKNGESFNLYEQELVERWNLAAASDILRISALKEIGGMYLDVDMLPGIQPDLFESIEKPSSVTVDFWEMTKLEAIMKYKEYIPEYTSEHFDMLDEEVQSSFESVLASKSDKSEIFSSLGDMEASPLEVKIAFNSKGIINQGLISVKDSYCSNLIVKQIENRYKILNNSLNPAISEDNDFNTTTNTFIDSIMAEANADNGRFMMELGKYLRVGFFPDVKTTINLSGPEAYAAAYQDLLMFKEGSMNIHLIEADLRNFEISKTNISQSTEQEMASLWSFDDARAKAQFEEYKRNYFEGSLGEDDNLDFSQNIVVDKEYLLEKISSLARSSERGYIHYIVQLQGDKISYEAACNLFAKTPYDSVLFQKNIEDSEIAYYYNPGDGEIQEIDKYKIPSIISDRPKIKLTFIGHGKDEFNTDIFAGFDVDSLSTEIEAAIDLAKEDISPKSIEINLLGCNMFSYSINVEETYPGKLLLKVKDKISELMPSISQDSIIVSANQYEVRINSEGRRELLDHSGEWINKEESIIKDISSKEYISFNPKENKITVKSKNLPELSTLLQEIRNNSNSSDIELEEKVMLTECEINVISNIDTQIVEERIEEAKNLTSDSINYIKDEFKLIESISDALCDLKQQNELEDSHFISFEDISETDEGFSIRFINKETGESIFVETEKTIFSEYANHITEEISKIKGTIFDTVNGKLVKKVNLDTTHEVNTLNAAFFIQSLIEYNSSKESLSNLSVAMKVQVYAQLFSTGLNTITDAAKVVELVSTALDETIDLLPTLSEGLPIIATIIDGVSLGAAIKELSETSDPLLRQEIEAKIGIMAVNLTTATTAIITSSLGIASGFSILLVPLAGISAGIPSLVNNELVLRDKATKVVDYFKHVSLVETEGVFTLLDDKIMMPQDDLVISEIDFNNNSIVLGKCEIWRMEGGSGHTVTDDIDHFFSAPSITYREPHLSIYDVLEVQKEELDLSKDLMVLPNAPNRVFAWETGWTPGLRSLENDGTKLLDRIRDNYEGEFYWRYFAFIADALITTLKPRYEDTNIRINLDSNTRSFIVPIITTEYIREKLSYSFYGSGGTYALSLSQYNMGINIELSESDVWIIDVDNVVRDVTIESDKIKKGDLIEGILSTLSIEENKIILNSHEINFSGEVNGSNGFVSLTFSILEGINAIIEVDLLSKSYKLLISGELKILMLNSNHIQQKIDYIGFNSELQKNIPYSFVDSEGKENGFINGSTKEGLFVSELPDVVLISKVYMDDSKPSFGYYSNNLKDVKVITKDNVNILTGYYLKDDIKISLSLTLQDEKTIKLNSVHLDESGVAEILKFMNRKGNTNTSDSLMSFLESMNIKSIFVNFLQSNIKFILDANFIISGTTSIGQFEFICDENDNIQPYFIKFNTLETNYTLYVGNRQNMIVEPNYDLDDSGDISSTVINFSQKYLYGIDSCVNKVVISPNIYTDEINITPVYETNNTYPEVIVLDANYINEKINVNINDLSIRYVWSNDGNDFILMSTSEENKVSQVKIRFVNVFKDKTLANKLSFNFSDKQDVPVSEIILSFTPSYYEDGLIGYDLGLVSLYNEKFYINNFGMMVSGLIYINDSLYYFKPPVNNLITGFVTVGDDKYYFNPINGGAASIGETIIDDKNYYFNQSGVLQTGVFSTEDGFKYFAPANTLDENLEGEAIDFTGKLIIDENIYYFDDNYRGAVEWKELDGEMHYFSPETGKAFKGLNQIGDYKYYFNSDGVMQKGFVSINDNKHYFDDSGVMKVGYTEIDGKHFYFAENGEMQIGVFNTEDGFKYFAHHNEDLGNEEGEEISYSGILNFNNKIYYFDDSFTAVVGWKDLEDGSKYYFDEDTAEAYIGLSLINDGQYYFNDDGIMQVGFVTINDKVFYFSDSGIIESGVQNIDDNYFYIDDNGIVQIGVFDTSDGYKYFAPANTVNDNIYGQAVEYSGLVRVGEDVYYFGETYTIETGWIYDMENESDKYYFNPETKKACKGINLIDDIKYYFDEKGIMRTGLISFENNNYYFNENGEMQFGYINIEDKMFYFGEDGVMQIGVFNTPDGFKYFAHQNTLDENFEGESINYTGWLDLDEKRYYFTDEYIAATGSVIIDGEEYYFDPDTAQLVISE
# in vitro = in vitro ADME, human; conditions: 37 °C
# Experimental: The half-life of Angie 5 in plasma was calculated according to a work by Freisem et al., with minor modifications. A sample (0.5 ml) of human plasma was spiked with 20 µM Angie 5 and incubated at 37 °C. Aliquots (50 µl) were separated at 0, 15, 30, 60, and 120 min, respectively, and mixed with 250 µl 0.1% TFA in acetonitrile at − 20 °C. The mixture was centrifuged at 13,000 rpm for 30 s, and 150 µl of the supernatant was mixed with 150 µl 20% acetic acid in ice. The samples were analyzed with an Axima Confidence MALDI-TOF MS (Shimadzu) in linear mode using exactly the same measurement conditions for all samples spotted on a 384-well plate. Wells were coated with 0.5 µl of 10 mg/ml CHCA previously dissolved in TFA/water/acetonitrile/2-propanol (2.5/47.5/25/25, v/v), and the solvent was allowed to evaporate. Then, each sample (0.5 µl), previously mixed with matrix (0.5 µl), was applied onto the dry pre-coated well, and the solvent was allowed to evaporate. Laser shots were automatically done following a regular circular raster of a diameter of 2000 μm and spacing of 200 μm on each well; 100 profiles were acquired per sample, and 20 shots were accumulated per profile. An accelerating voltage of 20 kV was applied to the ion source. […] The half-life was calculated using GraphPad Prism version 10.3.1 for Windows, GraphPad Software, Boston, Massachusetts USA, www.graphpad.com. […]
# TcdB [2] = molecular target: T1, TcdB; assay: cell-based
# Target sequence in this assay (P18177 2-2366 limits assumed): as above
# C. difficile = conditions: previously shown; cited from earlier work
# Experimental: Here, initially higher concentrations of the Angie peptides were tested and inhibition zones around the Angie peptides and the positive control were measured (Supplementary Fig. 1).
# TcdB [3] = molecular target: T1, TcdB; conditions: Angie peptides 100 µM, α-defensin-6 6 µM, TcdB 50 ng in 25 µl PBS, 30 min, 37 °C, supernatant/pellet immunoblot; n = 3-4
# Experimental: For the precipitation analysis, TcdB (50 ng equals 2 ng/µl) and inhibitors, α-defensin-6 (6 µM) and Angie peptides or water (solvent control) were incubated for 30 min in a total volume of 25 µl PBS. Next, the samples were centrifuged for 20 min, 14,000 rpm at 4 °C for separation of supernatant and pellet fraction. […] TcdB was detected using an anti-TcdB antibody (1:1000, Anti-Clostridium difficile Toxin B antibody, Abcam, Cambridge, UK).
substance,measurement,setting,value
KAINTFIHGNKISIKAI [Angie 1],Toxicity for zebrafish embryos,zebrafish embryos,not toxic
KDINTFIHGNKRSIKAI [reference Angie],"Protection from TcdB-mediated cell rounding, CaCo-2 cells",TcdB [1],did not inhibit
KFINIFIHGNKRSIKAI [Angie 5],"Protection from TcdB-mediated cell rounding, CaCo-2 cells",TcdB [1],protected
same,K of one-phase decay curve in human plasma,"in vitro; fit of signal area vs. time, human plasma, 20 µM, MALDI-TOF",0.1274
same,half-life at 20 µM,"in vitro; human plasma spiked with 20 µM, aliquots at 0, 15, 30, 60, 120 min, 0.1% TFA in acetonitrile, MALDI-TOF MS peak area, one-phase decay fit, n = 3 per time point",5.44 min
same,IC50,TcdB [2],46.3 µM
same,IC50,"TcdB [2]; IC50 of TcdB-mediated cell rounding, Vero cells, 10 pM TcdB, no preincubation, 3 h after addition, FCS-free medium, ± SEM 1.08 µM, four-parameter fit",40.9 µM
KGINTFIHGNKRSIKAI [Angie 6],"Protection from TcdB-mediated cell rounding, CaCo-2 cells",TcdB [1],did not inhibit
KLINTFIHGNKRSIKAI [Angie 7],"Protection from TcdB-mediated cell rounding, CaCo-2 cells",TcdB [1],did not inhibit
"LL-37: antimicrobial peptide used as positive control in the radial diffusion assay (Anaspec) (LLGDFFRKSKEKIGKEFKRIVQRIKDFLRNLVPRTES; Antibacterial peptide LL-37; UniProt P49913 134-170, looked up)",Activity against C. difficile,C. difficile,activity against C. difficile
"α-defensin-6: human peptide, positive control for precipitation of TcdB (PeptaNova)",Precipitate formation with TcdB,TcdB [3],precipitate formation
